Measured values published in US20030022813A1, “Treating pain by targeting hyperpolarization-activated, cyclic nucleotide-gated channels” (priority 2001, published 2003).
Entries after “also recorded” stand apart in the source; their conditions may differ.

What was measured:
CFA-injected rats = assay: Tactile allodynia in the complete Freund's adjuvant (CFA) paw model of inflammatory pain; assay type: in vivo, rat
[1] = tested on: native Ih in normal rat L4 dorsal root ganglion neurons; assay: Whole cell patch clamp of native Ih in dissociated L4 DRG neurons of uninjured rats (lidocaine); assay type: cell-based; conditions: bath-applied at neutral pH
Description: Lidocaine was tested for its effect on Ih expressed in dissociated L4 dorsal root ganglion neurons from uninjured rats to determine whether this well known Na channel blocker could have other mechanisms of action.
DRG were extirpated, dissociated and cultured 3-4 days on poly-D-lysine coated coverslips as described in Example 10. Ih was measured using the whole cell configuration of the patch clamp technique according to the methods described in Example 10 with the exception that the pipette solution was the solution used in Example 3. Neurons were challenged with a family of hyperpolarizing voltage pulses (−60 mV to −150 mV in increments of 10 mV) from a holding potential of −50 mV. Ih was determined at the end of 600 msec duration test pulses. Lidocaine was bath-applied at neutral pH and the percent inhibition of control Ih was determined after lidocaine achieved steady state block. Plotted is the steady state current observed at −134 mV as a percent of control after incubation of lidocaine at the indicated concentrations. […] Lidocaine block was reversible. Data were obtained from 3 cells having control Ih densities of −1.5, −2.0 and −2.2 pA/pF.

[2] = tested on: ectopic firing in injured peripheral nerves; conditions: systemically administered; cited from earlier work
human HCN3 = target: T1, human HCN3 (Homo sapiens, UniProt Q9P1Z3); assay: Whole cell patch clamp of HEK293 cells stably expressing human HCN3; assay type: cell-based
T1 construct: expressed in transfected cells; host or cells: HEK293 cells stably transfected with hHCN3-pCDNA3.1 Zeo
T1 sequence (Q9P1Z3 1-774): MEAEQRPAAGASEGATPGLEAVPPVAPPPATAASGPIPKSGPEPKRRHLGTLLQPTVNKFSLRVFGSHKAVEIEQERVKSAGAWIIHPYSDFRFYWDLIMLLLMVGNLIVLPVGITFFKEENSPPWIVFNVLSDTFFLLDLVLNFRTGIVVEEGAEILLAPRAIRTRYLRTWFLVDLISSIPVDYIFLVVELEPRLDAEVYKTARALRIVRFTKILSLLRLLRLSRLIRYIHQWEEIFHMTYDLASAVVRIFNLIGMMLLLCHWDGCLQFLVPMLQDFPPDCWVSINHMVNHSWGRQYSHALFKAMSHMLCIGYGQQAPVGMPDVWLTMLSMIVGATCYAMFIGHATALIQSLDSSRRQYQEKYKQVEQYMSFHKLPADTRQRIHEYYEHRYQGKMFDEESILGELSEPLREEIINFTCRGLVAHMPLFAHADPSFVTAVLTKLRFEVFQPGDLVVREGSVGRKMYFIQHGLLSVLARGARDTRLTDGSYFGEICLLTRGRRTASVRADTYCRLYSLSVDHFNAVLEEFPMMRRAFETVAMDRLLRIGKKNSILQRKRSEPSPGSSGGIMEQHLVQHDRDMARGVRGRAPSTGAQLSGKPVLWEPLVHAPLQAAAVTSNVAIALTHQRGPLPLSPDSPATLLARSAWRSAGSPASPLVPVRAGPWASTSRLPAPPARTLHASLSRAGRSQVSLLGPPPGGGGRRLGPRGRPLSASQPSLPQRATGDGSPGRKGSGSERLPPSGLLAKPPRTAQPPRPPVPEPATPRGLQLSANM

[3] = tested on: spontaneous firing of injured primary afferents (Aβ and Aδ fibers); assay: In vitro single fiber recording of spontaneous (ectopic) discharges in excised dorsal root/DRG/spinal nerve preparations from SNL rats; design: species or system rat
SNL rats = assay: Tactile allodynia (von Frey 50% paw withdrawal threshold) in the SNL (Chung) neuropathic pain model; assay type: in vivo, rat; conditions: i.p.
Description: Preparation of SNL (spinal nerve ligation) model: All studies were conducted in keeping with the guidelines of the Institutional Animal Care Committees of the University of California, San Diego and RWJPRI. Male Harlan Sprague-Dawley rats, 100-150 g, were housed in cages with solid bottoms and sawdust bedding, with a 12/12 h reversed light cycle (lights on 2100-900), and allowed free access to food pellets and water. Animals were housed in groups of 2 after surgical interventions. A surgical neuropathy was created as follows, to create a model commonly referred to as the SNL, or spinal nerve ligation model, also commonly referred to as the Chung model. Under isoflurane/oxygen anesthesia, a dorsal midline incision was made from approximately L3-S2. Using a mixture of sharp and blunt dissection, the left L6/S1 posterior interarticular process was exposed and resected to permit adequate visualization of the L6 transverse process, which was gently removed. Careful teasing of the underlying fascia exposed the left L4 and L5 spinal nerves distal to their emergence from the intervertebral foramina. The nerves were gently separated, and the L5 and in some cases either the L4 (for in vitro electrophysiology recordings) or the L6 nerve firmly ligated with 6-0 silk suture material. The wound was then inspected for hemostasis and closed in two layers. Animals with thresholds greater than 4 g were considered unsuccessful preparations(Chaplan et al., (1994) Journal of Neuroscience Methods 53: 55-63).
Behavioral assessment: Behavioral signs of allodynia were documented as follows. Briefly, rats were transferred to a testing cage with a wire mesh bottom and allowed to acclimate for 10-15 minutes. […] Lifting of the paw was recorded as a positive response and the next lightest filament chosen for the next measurement. […]

normal rats = assay: 55° C. hot plate test (latency to paw lick), acute thermally induced pain; assay type: in vivo, rat; conditions: 10 mg/kg i.p.
Description: A cutoff of 20 seconds of thermal surface exposure was employed to prevent tissue damage. Drug administration: Normal rats were administered ZD7288, 10 mg/kg, or an equivalent volume of saline, i.p. at time 0. Behavioral assessments were performed at 45, 60 and 75 minutes after drug administration.

Ih in large DRG neurons = assay: Whole cell patch clamp of Ih in acutely dissociated large L5 DRG neurons of SNL and control rats; assay type: cell-based, rat
[4] = tested on: rat mild thermal injury model; assay: Spontaneous pain behaviors in the rat mild thermal injury (first-degree burn) model; conditions: for suppression of spontaneous pain behaviors: 30 and 60 min; for adverse behavioral effects: morphine 3 mg/kg or ZD7288 10 mg/kg i.p.
[5] = tested on: preclinical models of neuropathic pain; conditions: cited from earlier work
Ih = conditions: applied intracellularly at 5 or 10 mM; cited from earlier work
human HCN1 = target: T2, human HCN1 (Homo sapiens, UniProt O60741); assay: Two-electrode voltage clamp of Xenopus oocytes injected with human HCN1 cRNA; assay type: cell-based; conditions: for block of HCN1 currents: Cs+ 3 mM in ND-96
T2 construct: expressed in transfected cells; host or cells: Xenopus laevis oocytes injected with cRNA transcribed from pGEM HE-human HCN1
T2 sequence (O60741 1-890): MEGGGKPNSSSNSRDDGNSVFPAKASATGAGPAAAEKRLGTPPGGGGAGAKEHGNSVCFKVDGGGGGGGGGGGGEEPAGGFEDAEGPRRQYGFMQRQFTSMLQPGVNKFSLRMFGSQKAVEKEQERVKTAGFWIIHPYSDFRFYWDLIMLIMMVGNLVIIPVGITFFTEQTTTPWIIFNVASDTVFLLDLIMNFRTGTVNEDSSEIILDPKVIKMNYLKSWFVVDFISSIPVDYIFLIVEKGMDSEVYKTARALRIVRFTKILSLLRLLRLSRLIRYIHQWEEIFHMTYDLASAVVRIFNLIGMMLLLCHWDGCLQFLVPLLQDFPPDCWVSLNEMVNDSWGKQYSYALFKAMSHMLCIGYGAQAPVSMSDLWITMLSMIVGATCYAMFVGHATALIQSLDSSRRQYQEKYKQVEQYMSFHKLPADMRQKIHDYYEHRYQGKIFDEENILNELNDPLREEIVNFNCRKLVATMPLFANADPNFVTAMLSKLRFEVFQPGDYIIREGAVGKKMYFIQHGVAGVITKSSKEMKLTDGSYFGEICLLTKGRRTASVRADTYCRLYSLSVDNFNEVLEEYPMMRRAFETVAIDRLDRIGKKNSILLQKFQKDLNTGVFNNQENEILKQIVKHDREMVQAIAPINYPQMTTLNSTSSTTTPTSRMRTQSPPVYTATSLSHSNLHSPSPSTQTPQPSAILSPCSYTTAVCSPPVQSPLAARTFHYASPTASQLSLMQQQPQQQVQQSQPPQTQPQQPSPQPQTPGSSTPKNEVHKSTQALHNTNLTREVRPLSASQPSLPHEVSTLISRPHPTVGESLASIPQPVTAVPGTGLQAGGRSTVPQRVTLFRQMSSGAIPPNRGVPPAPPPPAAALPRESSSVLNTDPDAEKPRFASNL

## NCC1(CC(=O)O)CCCCC1 [gabapentin]
CFA-injected rats; gabapentin 100 mg/kg i.p.
  suppression of CFA-induced tactile allodynia: not

## CCN(CC)CC(=O)Nc1c(C)cccc1C [lidocaine]
[1]
  reversibility of block of Ih: reversible
[2]
  effect on ectopic firing in injured peripheral nerves: stops the ectopic firing

## CC(C)Cc1ccc(C(C)C(=O)O)cc1 (centres unmarked) [ibuprofen]
CFA-injected rats; ibuprofen 30 mg/kg i.p.
  suppression of CFA-induced tactile allodynia: suppressed
CFA-injected rats; ibuprofen 30 mg/kg i.p., listed as Ibuprofen
  suppression of CFA-induced tactile allodynia: some efficacy

## CCN(c1ccccc1)c1cc(=NC)n(C)c(C)n1.Cl [ZD7288]
Human HCN3; ZD7288 50 μM, subsequently washed, previously 6 of 6 cells expressed Ih
  cells with no detectable Ih after previous bath exposure and wash: 3 of 3
Human HCN3; ZD7288 50 μM, n=3
  block of hyperpolarization-induced inward currents (Ih): 98+/−2%
Human HCN3; ZD7288 50 μM, washout period of at least 15 min
  reversibility of effect on HCN3 currents: did not reverse
[3]; 100 micromolar
  effect on spontaneous firing of Aδ fiber: attenuation of firing
  time to complete suppression of ectopic firing, typical Aβ fiber: 3 to 4 min
[3]; after application of ZD7288
  conduction blockade of evoked action potentials: no conduction blockade
[3]; bath application 100 μM for 5 min
  suppression of spontaneous discharges of Aβ fibers: complete suppression; also recorded: completely suppressed
SNL rats
  efficacy of suppression of allodynic responses (% MPE): 75.7+/−15.4%
SNL rats; 1, 3, 10 mg/kg
  suppression of tactile allodynia: suppressed allodynic responses in a dose-dependent manner; also recorded: blocked in a dose dependent manner; also recorded: suppressed the tactile allodynia
SNL rats; up to 10 mg/kg
  behavioral adverse effects / motor function: No untoward behavioral effects; also recorded: normal motor function; also recorded: without overt adverse effects on behavior
Normal rats
  effect on acute thermally-evoked pain: minimal effect
Normal rats; 45 or 60 min
  difference from saline in hot plate latency: No statistically significant difference
Normal rats; 75 min, statistically significant, minor
  difference from saline in hot plate latency: approximately 15%
CFA-injected rats; ZD7288 10 mg/kg i.p., 10 mg/kg
  suppression of CFA-induced tactile allodynia: suppressed allodynia; also recorded: markedly suppressed
Ih in large DRG neurons; ZD7288 50 μM
  block of Ih in large DRG neurons: efficacious block
[4]; ZD7288 10 mg/kg i.p., 10 mg/kg
  suppression of spontaneous pain behaviors: near complete suppression; also recorded: suppressed spontaneous pain
[4]
  adverse behavioral effects: No adverse behavioral effects

## CCCCN1CCCCC1C(=O)Nc1c(C)cccc1C (centres unmarked) [bupivacaine]
[5]
  anti-hyperalgesic activity: does not possess any anti-hyperalgesic activity

## CC[N+](CC)(CC)CC(=O)Nc1c(C)cccc1C [QX-314]
Ih
  block of Ih: blocks Ih

## [Cl-].[Cs+] [Cs^+, CsCl]
Human HCN1; Cs+ 3 mM
  effect on endogenous inward currents of oocytes: no effect
Human HCN1; Ih evoked by stepping to −80 mV, n=3
  block of HCN1 currents: 94%
Human HCN1; Ih evoked by stepping to −100 mV, n=3
  block of HCN1 currents: 92%
Human HCN1; Ih evoked by stepping to −120 mV, n=3
  block of HCN1 currents: 90%
Human HCN1; Cs+ 3 mM, n=3
  block of low threshold inward currents in HCN1-injected oocytes, reversibility: reversibly blocked
Human HCN3; 3 mM CsCl
  block of hyperpolarization-induced inward currents (Ih): completely blocked
Human HCN3; Cs+ 3 mM
  reversibility of effect on HCN3 currents: rapidly reversible
Ih in large DRG neurons; extracellular Cs+ 3 mM
  block of Ih in large DRG neurons: efficacious block

## CN1CC[C@]23c4c5ccc(O)c4O[C@H]2[C@@H](O)C=C[C@H]3[C@H]1C5 [morphine]
CFA-injected rats; morphine 3 mg/kg i.p.
  suppression of CFA-induced tactile allodynia: suppressed
[4]; morphine 3 mg/kg i.p.
  suppression of spontaneous pain behaviors: near complete suppression; also recorded: suppressed spontaneous pain
[4]
  adverse behavioral effects: No adverse behavioral effects
